In US12071430B2 (The Johns Hopkins University, priority 2011, dated 2024):
Converted amounts (≈) assume the structure as drawn. Where two headings read alike, the source gives them in different places.

Columns and labels:
CYP3A4 = target: T1, CYP3A4 (Homo sapiens, UniProt P08684); assay: CYP3A4 enzyme assay (Vivid CYP3A4 Green Screening Kit); format: in vitro ADME
T1 construct: purchased ThermoFisher P2857; host or cells: baculosomes (insect-cell microsomes, own knowledge)
Summary of the method: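 Cell-free fluorescence assay with CYP3A4 baculosomes preincubated with drug 10 min at 37° C before Vivid substrate addition. Fluorescence (ex/em 485/520) read every 1 min for 60 minutes. Compounds tested at 1 μM final concentration.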

HUVECs = assay: Filipin staining of intracellular cholesterol (NPC phenotype); format: cell-based, human; details: HUVEC, 0.2 μM, 24 h
Description: Nieman-Pick C phenotype and mTOR inhibition. […] We thus determined whether compound 48 shared the same mechanism with itraconazole. The intracellular cholesterol was detected using the cholesterol-binding fluorescent dye filipin. […] It is known that AMPK activation leads to mTOR inhibition.
Inhibition of NPC1. NPC1 plays an essential role in cholesterol export from the endolysosome. […] At a close view (FIG. 9B), the linear pyridinyl-piperizin-1-yl-phenyl core of compound 14 nestled into the hydrophobic channel created by the transmembrane helix. The isobutyl tail faced toward the open entrance of this channel. The tetrazole moiety pointed into the closed end of the pocket and interacted with the hydroxyl group of Tyr1225 via hydrogen bonding.
Filipin staining. 2000 HUVECs were plated in chamber slide with 1 ml media and allowed to settle overnight. […] The the cells were fixed with 4% paraformaldehyde for 15 min. After washed, cells were incubated with 500 ul 50 ug/ml filipin solution for 1 hour in the dark. Then the cells were washed twice with PBS, mounted and covered with coverslip. The images were taken using confocal microscope under 360/460 nm.

[1] = Aqueous solubility test in 0.001N HCl; format: physicochemical; details: for solubility at 24 h: 0.001 N HCl aqueous buffer, simulated gastric fluid, kinetic from dmso stock, thermodynamic solubility, HPLC, pH=3, room temperature
Procedure: The inhibitory effects of the new analogs on HUVEC proliferation were measured using a [3H]-thymidine incorporation assay. The log P values, used as an indicator of lipophilicity, were calculated using ALOGPS2.1 software. Aqueous solubility is a key physiochemical property relevant for oral absorption. We determined the solubility of each analog in 0.001 N HCl (pH=3), which represents the acidic human gastric fluid.
Aqueous solubility test. In a 1.5 mL microcentrifuge tube, 2 ul of 10 mM compound stock solution in DMSO was added to 1 mL 0.001N HCl aqueous buffer to obtain saturated solution. The resulting mixture was shaken under 600 rpm for 24 h at room temperature. Then the tube was centrifuged at 13,000 rpm for 5 min to remove the undissolved compound. 100 ul of the supernatant was injected to an Agilent 6120 LC/MS for analysis. The mass spectrometry data was collected under SIM/Scan mode. The ions of compound Exact Mass+1 and Exact Mass+23 were monitored as selected ion monitoring (SIM) for peak area integration. Solubility was calculated according to the concentration standard curve of each compound.

HUVEC [2] = assay: HUVEC proliferation, [3H]-thymidine incorporation assay; format: cell-based; details: Homo sapiens, mean ± SD, three independent experiments, read-out: HUVEC inhibition IC50
HUVEC [3] = assay: as above; format: cell-based, human
Summary of the method: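 Proliferation read as [3H]-thymidine uptake (1 μCi, 6 h pulse) after 24 h drug treatment in triplicate. Cells: HUVEC at passage ≤8 grown in EGM-2, plated 2000/well the night before; IC50 fitted from scintillation counts.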

HUVEC [4] = assay: HUVEC tube formation assay on Matrigel; format: cell-based; details: Homo sapiens, 24 h, read-out: inhibition of HUVEC tube formation (total tube length)
AMPK = assay: Western blot, AMPK activation in HUVEC; format: cell-based, human; details: 24 h, dose-dependent
Procedure: (§1) Western blot. […] Then cells were lysed using RIPA buffer and the protein concentration were measured and normalized. After electrophoresis and transfer onto 0.45 um nitrocellulose membranes, the membranes were bolted with 5% BSA for 1 h and then incubated overnight at 4° C. Secondary antibody was applied to each membrane for 1 hour. Bolts were imaged using Syngene PXi imaging system after adding chemiluminescent substrate. The following antibodies were used for the assay: AMPKα (1:1,000, cell signaling, #2532s), phosphor-AMPKα (1:1,000, cell signaling #2535s), ACC (1:1,000, cell signaling #3662s), phosphor-ACC (1:1,000, cell signaling, #3661s), mTOR (1:1,000, cell signaling, #2972S), phosphor-mTOR (1:1,000, cell signaling, #9234s), p70 S6 Kinase (1:1,000, senta cruz, #sc-8418), phosphor-p70 S6 Kinase (1:1,000, cell signaling, #3662s), anti-Rabbit IgG (1:10000, GE lifesciences, #NA934V).

mTOR = assay: Western blot, mTOR inhibition in HUVEC; format: cell-based, human; details: for mTOR inhibition (phosphorylation of mTOR / p70 S6K): 24 h
Procedure: as §1

VEGFR2 [5] = assay: Western blot, VEGFR2 glycosylation in HUVEC; format: cell-based, human; details: 24 h
Procedure: mTOR and VEGFR2 inhibition. We then determined the effects of compound 14 on AMPK/mTOR activity and VEGFR2 glycosylation. […] We observed two VEGFR2 bands by Western blotting, representing differentially glycosylated forms of the receptor, with the higher molecular weight band being more predominant in untreated HUVEC. […] The high molecular weight species of VEGFR2 disappeared upon treatment with compound 14 at concentrations of 0.5 μM or higher (FIG. 10A). We next determined whether compound 14 and other analogs affected cellular localization of VEGFR2 using immunofluorescence (FIG. 10B). […] In contrast, in the untreated cells VEGFR2 was uniformly distributed in small puncta throughout the cytoplasm. As a critical component of lipid rafts, cholesterol is pivotal to intracellular transportation and cell signaling.
Western blot. […] Then cells were lysed using RIPA buffer and the protein concentration were measured and normalized. After electrophoresis and transfer onto 0.45 um nitrocellulose membranes, the membranes were bolted with 5% BSA for 1 h and then incubated overnight at 4° C. Secondary antibody was applied to each membrane for 1 hour. Bolts were imaged using Syngene PXi imaging system after adding chemiluminescent substrate. […]

VEGFR2 [6] = assay: Immunofluorescence assay, VEGFR2 cellular localization; format: cell-based, human; details: HUVEC, 2 μM, 24 h, colocalized with GM130
Procedure: Immunofluorescence assay. HUVECs (5000) were seeded in 4-well chamber slide (Nunc™ Lab-Tek™ II) with 1 mL media and cultured overnight. Cells were treated with […] drugs or DMSO for 24 h. The media was then aspirated and washed 3 times with PBS. Cells were fixed with 4% paraformaldehyde for 15 min, washed three times with PBS, permeabilized with 0.1% Triton X and washed again. 2% BSA blocking buffer was applied to the cells for 1 h. The primary antibodies of VEGFR2 (1:50, cell signaling, #2479) and GM130 (1:1000, BD, #610823) were incubated overnight at 4° C. After washing 3 times with 0.5% BSA in PBS, secondary antibody solutions (1:1000 goat anti-rabbit Alexa Fluor 488, Invitrogen, #A11008 and 1:1000 goat anti-mouse Alexa Fluor 594, Invitrogen, A11005) were applied at room temperature for 1 h in the dark. After washing 3 times, slides were incubated in 0.1 μg/mL DAPI solution for 5 min and rinsed 2 times with PBS. The coverslip was mounted with Immunount (Fisher) and sealed with nail polish. Confocal images were taken using Zeiss LSM700 confocal microscope with 20× lenses.

[7] = Earlier SAR studies, anti-angiogenic activity
[8] = Earlier SAR studies, hepatotoxicity
[9] = background statement; cited from earlier work
[10] = dose-response, FIG. 2 / FIG. 6, read-out: IC50 for CYP3A4 inhibition

T1 sequence (P08684 whole entry): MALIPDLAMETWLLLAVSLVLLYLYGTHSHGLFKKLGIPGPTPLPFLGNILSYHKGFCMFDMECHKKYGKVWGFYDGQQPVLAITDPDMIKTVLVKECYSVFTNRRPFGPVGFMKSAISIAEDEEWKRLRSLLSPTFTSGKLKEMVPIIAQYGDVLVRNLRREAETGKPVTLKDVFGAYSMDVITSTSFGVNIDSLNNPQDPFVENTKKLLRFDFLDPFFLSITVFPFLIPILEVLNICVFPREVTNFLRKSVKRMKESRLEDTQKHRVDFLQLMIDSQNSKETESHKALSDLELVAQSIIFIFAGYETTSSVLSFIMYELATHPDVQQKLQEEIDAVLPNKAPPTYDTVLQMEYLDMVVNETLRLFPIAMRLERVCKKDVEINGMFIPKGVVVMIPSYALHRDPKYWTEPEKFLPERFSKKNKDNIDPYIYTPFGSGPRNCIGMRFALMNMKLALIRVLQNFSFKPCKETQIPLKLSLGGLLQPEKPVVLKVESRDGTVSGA

In the case of `CCC(C)n1ncn(-c2ccc(N3CCN(c4ccc(OC[C@@H]5CO[C@@](Cn6cnnn6)(c6ccc(Cl)cc6Cl)O5)cc4)CC3)c(F)c2)c1=O` (stereo partly drawn) [Compound 8, 4-(4-(4-(4-(((2S,4R)-2-((1H-tetrazol-1-yl)methyl)-2-(2,4-dichlorophenyl)-1,3-dioxolan-4-yl)methoxy)phenyl)piperazin-1-yl)-3-fluorophenyl)-2-(sec-butyl)-2,4-dihydro-3H-1,2,4-triazol-3-one], the IC50 (CYP3A4; [10]) is reported as greater than 100 µM, the “induction of NPC phenotype (cholesterol accumulation)” value (“induction of NPC phenotype” for short) (HUVECs) is reported as “massive build-up of cholesterol” and the solubility at 24 h [1] is reported as 0.0528 µg/mL (≈ 0.0729 µM). The IC50 (HUVEC [2]) was 153 ± 32.7 nM.
`CCC(C)n1ncn(-c2ccc(N3CCN(c4ccc(OC[C@@H]5CO[C@@](Cn6cnnn6)(c6ccc(Cl)cc6Cl)O5)cn4)CC3)cc2)c1=O` (stereo partly drawn) [Compound 14, 4-(4-(4-(5-(((2S,4R)-2-((1H-tetrazol-1-yl)methyl)-2-(2,4-dichlorophenyl)-1,3-dioxolan-4-yl)methoxy)pyridin-2-yl)piperazin-1-yl)phenyl)-2-(sec-butyl)-2,4-dihydro-3H-1,2,4-triazol-3-one] showed an IC50 (HUVEC [3]; [3H]-thymidine incorporation, mean ± SD, three independent experiments, read-out: HUVEC inhibition IC50) of 77.1 ± 11.9 nM, an IC50 (CYP3A4; [10]) of 95 µM and an inhibition at 3 µM (HUVEC [4]) of 70%. The “induction of NPC phenotype” value (HUVECs) was “massive build-up of cholesterol”, the “AMPK activation (phosphorylation of AMPK Thr172 / substrate ACC)” value (AMPK) was “activated AMPK” and the “S6K phosphorylation at higher doses” value (mTOR; 1 μM and 2 μM) was “completely abolished”. For the same molecule, the “mTOR inhibition (phosphorylation of mTOR / p70 S6K)” value (mTOR) was “potently inhibited”, the “VEGFR2 glycosylation, band mobility” value (VEGFR2 [5]) was “mobility shift to the lower molecular weight, hypoglycosylated band” and the “concentration at which the high molecular weight species of VEGFR2 disappeared” value (VEGFR2 [5]) was no less than 0.5 µM. For the same molecule, the VEGFR2 cellular localization (VEGFR2 [6]) was “accumulated in the perinuclear region”, the “increase in solubility compared to itraconazole” value ([1]; 0.001N HCl) was “over 90 fold” and the solubility at 24 h [1] was 0.951 µg/mL (≈ 1.34 µM). It also gave an IC50 (HUVEC [2]) of 77 nM.
With `CCC(C)n1ncn(-c2ccc(N3CCN(c4ccc(OC[C@@H]5CO[C@@](Cn6cnnn6)(c6ccc(Cl)cc6Cl)O5)cn4)CC3)c(F)c2)c1=O` (stereo partly drawn) [Compound 15, 4-(4-(4-(5-(((2S,4R)-2-((1H-tetrazol-1-yl)methyl)-2-(2,4-dichlorophenyl)-1,3-dioxolan-4-yl)methoxy)pyridin-2-yl)piperazin-1-yl)-3-fluorophenyl)-2-(sec-butyl)-2,4-dihydro-3H-1,2,4-triazol-3-one] the IC50 (CYP3A4; [10]) was 37 µM, the “induction of NPC phenotype” value (HUVECs) was “massive build-up of cholesterol” and the solubility at 24 h [1] was 0.708 µg/mL (≈ 0.975 µM). It also gave an IC50 (HUVEC [2]) of 108 ± 8.6 nM.
In the case of `CCC(C)n1ncn(-c2ccc(N3CCN(c4ccc(OC[C@@H]5CO[C@@](Cn6cnnn6)(c6ccc(Cl)cc6Cl)O5)cc4)CC3)cc2)c1=O` (stereo partly drawn) [Compound 24], the “CYP3A4 inhibition, in words” value (CYP3A4; dose response or compared with itraconazole) is reported as “significantly reduced CYP3A4 inhibition”, the “induction of NPC phenotype” value (HUVECs; listed as compound 24) is reported as “massive build-up of cholesterol” and the solubility at 24 h [1] is reported as 0.321 µg/mL (≈ 0.455 µM). The “anti-angiogenic activity, in words” value [7] was “increased activity”.
For `CCC(C)n1ncn(-c2ccc(N3CCN(c4ccc(OC[C@@H]5CO[C@@](Cn6cnnn6)(c6ccc(Cl)cc6Cl)O5)cc4)CC3)cc2)c1=O` (stereo partly drawn) [Compound 48, 4-(4-(4-(4-(((2S,4R)-2-((1H-tetrazol-1-yl)methyl)-2-(2,4-dichlorophenyl)-1,3-dioxolan-4-yl)methoxy)phenyl)piperazin-1-yl)phenyl)-1-sec-butyl-1H-1,2,4-triazol-5(4H)-one], the “Proliferation (IC50/IC50 Itra)” value (HUVEC [3]; HUVEC IC50 relative to itraconazole) was 0.4, the “CYP3A4 Inhibition (compared to intracozanole at 1 um)” value (CYP3A4; % enzyme inhibition at 1 uM drug / % enzyme inhibition at 1 uM itraconazole) was 0.02 and the IC50 at 60 min (CYP3A4; human, recombinant CYP3A4 baculosomes (cell-free), probe Vivid substrate (Vivid CYP3A4 Green Screening Kit), dose-response, FIG. 2 / FIG. 6, read-out: IC50 for CYP3A4 inhibition) was greater than 20 µM. For the same molecule, the EC50 at 60 min (CYP3A4; human, recombinant CYP3A4 baculosomes, probe Vivid substrate (Vivid CYP3A4 Green Screening Kit), read-out: EC50 against CYP3A4) was greater than 20 µM, the “induction of NPC phenotype” value (HUVECs; listed as compound 48) was “induced NPC phenotype” and the “AMPK activation (phosphorylation of AMPK Thr172 / substrate ACC)” value (AMPK) was “increased the phosphorylation of AMPK”. For the same molecule, the “mTOR inhibition (phosphorylation of mTOR / p70 S6K)” value (mTOR) was “decrease in the phosphorylation of mTOR”.
For `CCC(C)n1ncn(-c2ccc(N3CCN(c4ccc(OC[C@@H]5CO[C@@](Cn6cncn6)(c6ccc(Cl)cc6Cl)O5)cc4)CC3)cc2)c1=O` (stereo partly drawn) [IT-C], the “anti-angiogenic activity, in words” value [7] was “strongest anti-angiogenic activity” and the “hepatotoxicity, in words” value [8] was “significantly reduced hepatotoxicity”.
For `CCC(C)n1ncn(-c2ccc(N3CCN(c4ccc(OCC5COC(Cn6cncn6)(c6ccc(Cl)cc6Cl)O5)cc4)CC3)cc2)c1=O` (stereo not drawn) [itraconazole, reference compound], the solubility at 24 h [1] is listed as 0.0101 µg/mL (≈ 0.0143 µM) and the “log P” value [9] is listed as 5.3.
